According to PMC7702721 (The AAPS journal, 2016):
Like-named read-outs stand apart in the source and are kept apart here.

Assays:
[1] = Pharmacokinetic study in rats after oral administration of kaempferol; assay type: in vivo, Sprague–Dawley (SD) rats; conditions: for AUC0-t / Cmax / MRT0-t / Tmax / AUC0−∞ / MRT last: plasma; for AUC0−∞: predicted AUC
[2] = assay type: in vivo, FVB mice; conditions: oral kaempferol 10 mg/kg; for fold higher plasma Cmax and AUC0-t in absence of Bcrp versus wild-type: Bcrp1^−/− vs wild-type FVB mice
Caco-2 monolayer [3] = experiment: Bidirectional efflux of kaempferol-glucuronides across the Caco-2 monolayer; assay type: in vitro ADME; conditions: 10 μM kaempferol loaded AP or BL, 2 h
[4] = rat, in vivo
[5] = In situ four-site rat intestinal perfusion of kaempferol
[6] = system: rat hepatic and segmental intestinal preparations; experiment: Kaempferol glucuronidation via rat hepatic and segmental intestinal microsomes; assay type: in vitro ADME, SD rats
[7] = system: hepatic and intestinal S9 fractions; assay type: in vitro ADME, FVB mice; conditions: kaempferol 1.25 μM
[8] = system: hepatic and intestinal S9 fractions; assay type: in vitro ADME, FVB mice; conditions: kaempferol 0.125 μM
[9] = system: rat hepatic and segmental intestinal preparations; experiment: Kaempferol sulfation via rat hepatic and segmental intestinal S9 fraction; assay type: in vitro ADME, SD rats; conditions: kaempferol 0.125, 0.5 and 1.25 μM, S9 fraction 0.02 mg/mL
[10] = ref [20]; cited from earlier work
Caco-2 monolayer [11] = experiment: Transporter inhibition experiments in the Caco-2 monolayer; conditions: kaempferol 10 μM
[12] = male SD rats, oral kaempferol 10 mg/kg, n = 6
[13] = male SD rats, oral kaempferol 20 mg/kg, n = 6
[14] = perfusion with 5 μM or 20 μM kaempferol
[15] = male, Sprague-Dawley, rat, po, 10 mg/kg
[16] = male, Sprague-Dawley, rat, po, 20 mg/kg

SMILES: O=C(O)[C@H]1O[C@@H](Oc2c(-c3ccc(O)cc3)oc3cc(O)cc(O)c3c2=O)[C@H](O)[C@@H](O)[C@@H]1O [K-3-G, kaempferol-3-glucuronide]
- AUC0-t [1, 12]: (1.74 ± 0.47) ×10^3 min•μmol/L
- Cmax [1, 12]: 24.6 ± 7 µM
- MRT0-t [1, 12]: 1.48 ± 0.233 h
- Tmax [1, 12]: 0.333 ± 0.148 h
- AUC0-t [1, 13]: (2.79 ± 0.33) ×10^3 min•μmol/L
- Cmax [1, 13]: 30.9 ± 5.5 µM
- MRT0-t [1, 13]: 1.9 ± 0.467 h
- Tmax [1, 13]: 0.4 ± 0.0917 h
- AUC0−∞ [1, 12]: (1.76 ± 0.46) ×10^3 min•μmol/L
- AUC0−∞ [1, 13]: (2.81 ± 0.33) ×10^3 min•μmol/L
- AUC of K-3-G, times higher than that of K-7-G ([1]; rats, 10 mg/kg kaempferol): five
- AUC of K-3-G, times higher than that of K-7-S ([1]; rats, 10 mg/kg kaempferol): four
- Cmax and AUC of K-3-G relative to K-7-G ([1]; rats, oral kaempferol): threefold to fivefold higher
- AUC0-t ([2]; Bcrp1^−/− FVB mice): 848 ± 123 µmol·min/L
- Cmax ([2]; Bcrp1^−/− FVB mice): 18 ± 6.4 µM
- MRT ([2]; Bcrp1^−/− FVB mice): 1.62 ± 0.362 h
- fold higher plasma Cmax and AUC0-t in absence of Bcrp versus wild-type [2]: ~ 2 fold
- AUC0-t ([2]; Mdr1a^−/− FVB mice): 143 ± 83 µmol·min/L
- Cmax ([2]; Mdr1a^−/− FVB mice): 4.62 ± 1.14 µM
- MRT ([2]; Mdr1a^−/− FVB mice): 1.88 ± 1.18 h
- AUC0-t ([2]; Mrp1^−/− FVB mice): 38.0 ± 29.1 µmol·min/L
- Cmax ([2]; Mrp1^−/− FVB mice): 1.75 ± 1.18 µM
- MRT ([2]; Mrp1^−/− FVB mice): 0.557 ± 0.332 h
- AUC0-t ([2]; Mrp2^−/− FVB mice): (1.28 ± 0.27) ×10^3 min•μmol/L
- Cmax ([2]; Mrp2^−/− FVB mice): 32.3 ± 9.7 µM
- MRT ([2]; Mrp2^−/− FVB mice): 1.51 ± 0.183 h
- AUC0-t ([2]; wild-type FVB mice): 365 ± 195 µmol·min/L
- Cmax ([2]; wild-type FVB mice): 8.92 ± 1.69 µM
- MRT ([2]; wild-type FVB mice): 1.72 ± 0.483 h
- efflux toward the BL side compared with that toward the AP side (Caco-2 monolayer [3]): approximately six times higher
- detection in plasma during perfusion [4]: detected in plasma
- regional excretion of metabolite in the perfusate [5, 14]: highest excretion in duodenum and jejunum and the lowest excretion in colon

SMILES: O=C(O)[C@H]1O[C@@H](Oc2cc(O)c3c(=O)c(O)c(-c4ccc(O)cc4)oc3c2)[C@H](O)[C@@H](O)[C@@H]1O [K-7-G, kaempferol-7-glucuronide]
- AUC0-t [1, 12]: 310 ± 95 µmol·min/L
- Cmax [1, 12]: 5.29 ± 2.97 µM
- MRT0-t [1, 12]: 2.1 ± 0.617 h
- Tmax [1, 12]: 0.292 ± 0.0833 h
- AUC0-t [1, 13]: 802 ± 231 µmol·min/L
- Cmax [1, 13]: 9.55 ± 3.37 µM
- MRT0-t [1, 13]: 2.17 ± 0.717 h
- Tmax [1, 13]: 0.267 ± 0.0917 h
- AUC0−∞ [1, 12]: 314 ± 96 µmol·min/L
- AUC0−∞ [1, 13]: 811 ± 311 µmol·min/L
- AUC0-t ([2]; Bcrp1^−/− FVB mice): 464 ± 234 µmol·min/L
- Cmax ([2]; Bcrp1^−/− FVB mice): 14.9 ± 3.6 µM
- MRT ([2]; Bcrp1^−/− FVB mice): 0.757 ± 0.372 h
- fold higher plasma Cmax and AUC0-t in absence of Bcrp versus wild-type [2]: > 4 fold
- AUC0-t ([2]; Mdr1a^−/− FVB mice): 63.1 ± 15.3 µmol·min/L
- Cmax ([2]; Mdr1a^−/− FVB mice): 1.12 ± 0.68 µM
- MRT ([2]; Mdr1a^−/− FVB mice): 4.07 ± 0.367 h
- AUC0-t ([2]; Mrp1^−/− FVB mice): 13.9 ± 12.0 µmol·min/L
- Cmax ([2]; Mrp1^−/− FVB mice): 0.839 ± 0.853 µM
- MRT ([2]; Mrp1^−/− FVB mice): 0.43 ± 0.277 h
- AUC0-t ([2]; Mrp2^−/− FVB mice): 392 ± 78 µmol·min/L
- Cmax ([2]; Mrp2^−/− FVB mice): 14.3 ± 4.8 µM
- MRT ([2]; Mrp2^−/− FVB mice): 1.52 ± 0.302 h
- AUC0-t ([2]; wild-type FVB mice): 114 ± 79 µmol·min/L
- Cmax ([2]; wild-type FVB mice): 2.91 ± 1.94 µM
- MRT ([2]; wild-type FVB mice): 1.36 ± 0.57 h
- glucuronide formation by liver microsomes, K-7-G versus K-3-G ([6]; rat liver microsomes): more K-7-G than K-3-G
- efflux toward the BL side compared with that toward the AP side (Caco-2 monolayer [3]): not more than twice higher
- amount of K-7-G in the perfusate compared with K-3-G ([5]; 20 μM perfusion): slightly higher than that of K-3-G in duodenum and jejunum, but was significantly higher in ileum and colon
- regional excretion of metabolite in the perfusate [5, 14]: highest excretion in duodenum and jejunum and the lowest excretion in colon

SMILES: O=c1c(O)c(-c2ccc(O)cc2)oc2cc(OS(=O)(=O)O)cc(O)c12 [K-7-S, kaempferol-7-sulfate]
- Cmax [1, 15]: 0.332 ± 0.085 µM
- MRT last [1, 15]: 17.5 h
- Tmax [1, 15]: 18.7 h
- Cmax [1, 16]: 0.703 ± 0.296 µM
- MRT last [1, 16]: 18.2 h
- Tmax [1, 16]: 15.2 h
- AUC0-t [1, 12]: 454 ± 90 µmol·min/L
- AUC0-t [1, 13]: (1.15 ± 0.22) ×10^3 min•μmol/L
- AUC0−∞ [1, 12]: 536 ± 164 µmol·min/L
- AUC0−∞ [1, 13]: (1.65 ± 0.56) ×10^3 min•μmol/L
- time after dose at which still detected in plasma ([1]; rats, oral kaempferol): 36 h
- AUC0-t ([2]; Bcrp1^−/− FVB mice): 156 ± 55 µmol·min/L
- AUC0-t ([2]; Mdr1a^−/− FVB mice): 36.7 ± 37.0 µmol·min/L
- AUC0-t ([2]; Mrp1^−/− FVB mice): 6.72 ± 5.83 µmol·min/L
- AUC0-t ([2]; Mrp2^−/− FVB mice): 102 ± 10 µmol·min/L
- Cmax ([2]; male, FVB, mouse, plasma, po, 10 mg/kg, Cmax, wild-type FVB mice): 0.301 ± 0.185 µM
- MRT ([2]; male, FVB, mouse, plasma, po, 10 mg/kg, MRT, wild-type FVB mice): 2.75 h
- AUC0-t ([2]; wild-type FVB mice): 49.5 ± 38.6 µmol·min/L
- regional excretion of metabolite in the perfusate [5, 14]: highest excretion in colon and lowest excretion in ileum

SMILES: O=c1c(O)c(-c2ccc(O)cc2)oc2cc(O)cc(O)c12 [Kaempferol, 3,4′,5,7-trihydroxyflavone]
- Cmax [1, 15]: 0.305 ± 0.106 µM
- MRT last [1, 15]: 0.437 h
- Tmax [1, 15]: 0.445 h
- Cmax [1, 16]: 0.647 ± 0.244 µM
- MRT last [1, 16]: 2.47 h
- Tmax [1, 16]: 0.3 h
- AUC0-t [1, 12]: 10.3 ± 3.8 µmol·min/L
- AUC0-t [1, 13]: 51.8 ± 17.2 µmol·min/L
- AUC0−∞ [1, 12]: 11.4 ± 3.7 µmol·min/L
- AUC0−∞ [1, 13]: 57.9 ± 13.6 µmol·min/L
- Cmax of kaempferol, times lower than that of K-3-G ([1]; rats, oral kaempferol): approximately 50 times
- Cmax of kaempferol, times lower than that of K-7-G ([1]; rats, oral kaempferol): ~16 times
- time to reach Cmax ([1]; rats, oral kaempferol): ≤ 30 min
- free kaempferol plasma concentration (below LLOQ) ([2]; at most periods, all strains of mice): < 3.9 nM
- increase of glucuronidation rate versus wild-type ([7]; liver S9, Bcrp1^−/− mice): 32%
- decrease of hepatic glucuronidation rate versus wild-type ([7]; liver S9, Mdr1a^−/− mice): ~30%
- decrease of hepatic glucuronidation rate versus wild-type ([7]; liver S9, Mrp1^−/− mice): ~ 26%
- decrease of hepatic glucuronidation rate versus wild-type ([7]; liver S9, Mrp2^−/− mice): ~ 11%
- decrease of sulfation rate versus wild-type ([8]; intestine S9, Mdr1a^−/− mice): ~47%
- decrease of sulfation rate versus wild-type ([8]; intestine S9, Mrp1^−/− mice): ~ 25%
- decrease of sulfation rate versus wild-type ([8]; intestine S9, Mrp2^−/− mice): ~79%
- decrease of sulfation rate versus wild-type ([8]; liver S9, Mdr1a^−/− mice): ~39%
- decrease of sulfation rate versus wild-type ([8]; liver S9, Mrp1^−/− mice): ~ 11%
- decrease of sulfation rate versus wild-type ([8]; liver S9, Mrp2^−/− mice): ~59%
- glucuronidation rates by segment ([6]; kaempferol 1.25, 2.5 and 10 μM, microsomes 0.00318 mg/mL): high and low glucuronidation rates were observed in the small intestine and colon, respectively
- sulfation reaction rates by tissue [9]: highest reaction rates in liver
- bioavailability [10]: lower than 2%
- regional absorption of kaempferol [5, 14]: faster absorption in colon than in jejunum and ileum

SMILES: COc1ccc2c3c([nH]c2c1)[C@H](CC(C)C)N1C(=O)[C@H](CCC(=O)OC(C)(C)C)NC(=O)[C@@H]1C3 [Ko143]
- effect on bidirectional efflux rates and Fmet of the two glucuronides (Caco-2 monolayer [11]; Ko143 10 μM): significantly decreased
- effect on efflux rates and Fmet of K-7-S (Caco-2 monolayer [11]; Ko143 10 μM): No statistical differences

SMILES: CCCCC/C=C\C\C=C/C=C/C=C/[C@@H](SC[C@H](NC(=O)CC[C@H](N)C(=O)O)C(=O)NCC(=O)O)[C@@H](O)CCCC(=O)O [LTC4]
- effect on Fmet (BL to AP) of the three metabolites (Caco-2 monolayer [11]; LTC4 0.1 μM): decreased
- effect on intracellular amounts of K-3-G and K-7-G (AP to BL) (Caco-2 monolayer [11]; LTC4 0.1 μM): significantly increased
- effect on amounts of the three metabolites in the AP side (Caco-2 monolayer [11]; LTC4 0.1 μM, except K-7-S (AP to BL)): reduced

SMILES: CN(C)C(=O)CCSC(SCCC(=O)O)c1cccc(/C=C/c2ccc3ccc(Cl)cc3n2)c1 (stereo not drawn) [MK571]
- effect on intracellular amounts of the three metabolites (Caco-2 monolayer [11]; MK571 10 μM): did not significantly influence
- effect on the three metabolites transported into BL side (Caco-2 monolayer [11]; MK571 10 μM): dramatically reduced
- effect on efflux rates of the three metabolites toward the BL side (Caco-2 monolayer [11]; MK571 10 μM, except K-7-G (AP to BL)): significantly lowered
